6 compounds from patent EP0580459B1, “Substituted Phenylimidazolidins, their use as medicaments and their pharmaceutical compositions containing them” (HOECHST MARION ROUSSEL, priority 1992, dated 1994) can be followed below.

Structures are written as SMILES.

Experiment [1] concerns the target T1, récepteur androgène (Rattus norvegicus, UniProt P15207).
T1 construct: Des aliquotes du surnageant obtenu (=cytosol), sont incubées 30 minutes et 24 heures à 0°C; from tissue; host or cells: prostate cytosol of castrated male Sprague-Dawley rats
T1 sequence (P15207 1-902): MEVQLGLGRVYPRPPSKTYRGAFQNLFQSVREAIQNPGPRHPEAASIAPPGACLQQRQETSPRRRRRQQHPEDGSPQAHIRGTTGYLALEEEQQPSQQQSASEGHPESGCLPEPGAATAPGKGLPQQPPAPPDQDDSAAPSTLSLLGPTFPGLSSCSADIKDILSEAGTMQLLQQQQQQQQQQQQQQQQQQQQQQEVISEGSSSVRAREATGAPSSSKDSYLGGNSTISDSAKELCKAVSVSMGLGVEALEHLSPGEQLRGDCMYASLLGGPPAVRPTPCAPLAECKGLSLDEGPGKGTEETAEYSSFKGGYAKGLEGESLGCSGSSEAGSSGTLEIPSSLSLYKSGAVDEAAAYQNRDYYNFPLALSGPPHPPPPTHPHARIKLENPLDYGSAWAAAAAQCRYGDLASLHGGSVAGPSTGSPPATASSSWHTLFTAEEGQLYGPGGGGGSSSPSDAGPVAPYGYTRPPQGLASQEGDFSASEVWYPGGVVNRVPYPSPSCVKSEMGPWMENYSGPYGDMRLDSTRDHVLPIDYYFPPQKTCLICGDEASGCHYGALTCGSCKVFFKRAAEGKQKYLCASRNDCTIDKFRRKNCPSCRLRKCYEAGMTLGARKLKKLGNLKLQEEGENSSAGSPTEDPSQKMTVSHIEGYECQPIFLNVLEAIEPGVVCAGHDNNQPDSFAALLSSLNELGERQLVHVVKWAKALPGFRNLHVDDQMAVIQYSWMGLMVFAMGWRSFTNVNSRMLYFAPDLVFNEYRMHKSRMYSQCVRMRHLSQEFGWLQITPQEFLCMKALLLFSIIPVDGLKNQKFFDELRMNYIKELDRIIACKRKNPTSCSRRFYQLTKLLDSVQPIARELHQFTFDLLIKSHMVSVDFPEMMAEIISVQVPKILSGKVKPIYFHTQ
As to the kind of experiment: Relative binding affinity (ARL) for the androgen receptor: displacement of tritiated testosterone in prostate cytosol. To be noted: Incubation 24 hours at 0°C; prostate cytosol of castrated rats; ARL=100 (CH)/(CX), testosterone = 100. Further details: species or system rats mâles Sprague. Dawley EOPS. As to the method:
1) Etude de l'affinité des produits de l'invention pour le récepteur androgène
Des rats mâles Sprague. Dawley EOPS de 180-200 g, castrés de 24 heures, sont sacrifiés, les prostates prélevées, pesées et homogénéisées à 0°C à l'aide d'un potter verre-verre, dans une solution tamponnée (Tris lOmM, saccharose 0,25M, PMSF (phénylméthanesulfonylfluoride) 0,1mM, Molybdate de sodium 20mM, HCl pH 7,4; auxquels on ajoute extemporanément 2mM de DTT (DL dithiothreitol), à raison de 1 g de tissu pour 8 ml de tampon.
L'homogénat est ensuite ultracentrifugé à 0°C, 30 minutes à 209 000 g.
Calcul de l'affinité relative de liaison (ARL).
On trace les 2 courbes suivantes : le pourcentage de l'hormone tritiée liée B/T en fonction du logarithme de la concentration de l'hormone de référence froide et B/T en fonction du logarithme de la concentration du produit froid testé. On détermine la droite d'équation I50=(B/Tmax + B/Tmin)/2. B/T max= % de l'hormone tritiée liée pour une incubation de cette hormone tritiée à la concentration (T). B/T min= % de l'hormone tritiée liée pour une incubation de cette hormone tritiée à la concentration (T) en présence d'un grand excès d'hormone froide (2500.10^-9M) .
Les intersections de la droite I50 et des courbes, permettent d'évaluer les concentrations de l'hormone de référence froide (CH) et du produit froid testé (CX) qui inhibent de 50 % la liaison de l'hormone tritiée sur le récepteur.

In experiment [2] the test system is ornithine décarboxylase rénale. As to the kind of experiment: Androgen / anti-androgen activity by assay of renal ornithine decarboxylase in castrated mice given testosterone propionate. In kind it is in vivo, souris mâles SWISS. To be noted: with testosterone propionate 3 mg/kg s.c., kidneys 20 hours after treatment, relative to controls given testosterone propionate only; for % d'inhibition de l'ODL Test A: Test A: percutaneous route, 1,5 mg/kg in 10 µl. As to the method:
2) Détermination de l'activité androgène ou anti-androgène des produits de l'invention à l'aide du dosage de l'ornithine décarboxylase.
- Protocole de traitement
20 heures après les traitements, les animaux sont sacrifiés, les reins prélevés, puis homogénéisés à 0°C , à l'aide d'un broyeur téflon-verre dans 10 volumes de tampon Tris-HCl 50 mM (pH 7,4) contenant 250 uM de phosphate de pyridoxal, 0,1 mM EDTA, et 5 mM de dithiothreitol. L'homogenat est ensuite centrifugé à 209000 g pendant 30 mn.
A 37°C, l'ornithine décarboxylase rénale transforme un mélange isotopique d'ornithine froide et d'ornithine tritiée en putrescine froide et putrescine tritiée.
La putrescine est ensuite recueillie sur des papiers sélectifs, échangeurs d'ions. Après séchage, l'excès d'ornithine tritiée et froide non transformée est éliminé, par 3 lavages d'ammoniaque 0,1 M. Les papiers sont séchés, puis la radioactivité est comptée après addition de scintillant Aqualite.
Les résultats sont exprimés en fmoles ([…]) de putrescine tritiée formée/heure/mg de protéines.
Test A : les produits sont administrés par voie percutanée à 1,5 mg/kg sous un volume de 10 µl. Test B : les produits sont administrés par voie orale à 1 mg/kg. Test C : les produits sont administrés par voie orale à 3 mg/kg.

Turning to `CC1(C)C(=O)N(c2ccc(C#N)c(C(F)(F)F)c2)C(=O)N1CCCCO` [Exemple 1, 4-(4,4-diméthyl 2,5-dioxo 3-(4-hydroxybutyl) 1-imidazolidinyl) 2-(trifluorométhyl) benzonitrile], the “ARL (affinité relative de liaison)” value in experiment [1] is reported as 31. The “% d'inhibition de l'ODL Test A” value in experiment [2] amounted to 40%. The “% d'inhibition de l'ODL Test B” value in experiment [2] (Test B: oral route, 1 mg/kg) is 36%.

Consider `COCCN1C(=S)N(c2ccc(C#N)c(C(F)(F)F)c2)C(=O)C1(C)C` [Exemple 5, 4-(4,4-diméthyl 3-(2-méthoxyéthyl) 5-oxo 2-thioxo 1-imidazolidinyl) 2-(trifluorométhyl) benzonitrile], for which, in experiment [1], the “ARL (affinité relative de liaison)” value worked out at 81. Further, the “% d'inhibition de l'ODL Test A” value in experiment [2] is 62%.

As for `CC(C)N1C(=S)N(c2ccc(C#N)c(C(F)(F)F)c2)C(=O)C1(C)C` [Exemple 6, 4-(4,4-diméthyl 3-(1-méthyléthyl) 5-oxo 2-thioxo 1-imidazolidinyl) 2-(trifluorométhyl) benzonitrile], the “ARL (affinité relative de liaison)” value in experiment [1] is reported as 28. The “% d'inhibition de l'ODL Test A” value in experiment [2] was found to be 35%.

With `CC1(C)C(=O)N(c2ccc(C#N)c(C(F)(F)F)c2)C(=S)N1CCCO` [Exemple 3, 4-(4,4-diméthyl 3-(3-hydroxypropyl) 5-oxo 2-thioxo 1-imidazolidinyl) 2-(trifluorométhyl) benzonitrile], in experiment [2], the “% d'inhibition de l'ODL Test A” value amounted to 41%.

Regarding `CC1(C)C(=O)N(c2ccc(C#N)c(C(F)(F)F)c2)C(=S)N1CCO` [Exemple 2, 4-(4,4-diméthyl 3-(2-hydroxyéthyl) 5-oxo 2-thioxo 1-imidazolidinyl) 2-(trifluorométhyl) benzonitrile], in experiment [1], the “ARL (affinité relative de liaison)” value is given as 163. Further, in experiment [2], the “% d'inhibition de l'ODL Test A” value turned out to be 32%. In addition, the “% d'inhibition de l'ODL Test C” value in experiment [2] (Test C: oral route, 3 mg/kg) came to 67%.

With `CC1(C)C(=O)N(c2ccc(C#N)c(C(F)(F)F)c2)C(=S)N1CCCCO` [Exemple 4, 4-(4,4-diméthyl 3-(4-hydroxybutyl) 5-oxo 2-thioxo 1-imidazolidinyl) 2-(trifluorométhyl) benzonitrile], the “ARL (affinité relative de liaison)” value in experiment [1] is 300. For the same compound, the “% d'inhibition de l'ODL Test A” value in experiment [2] worked out at 78%.
